Reference: patent publication US20140100419A1, “ACTIVE VITAMIN D OR ANALOGS THEREOF FOR USE IN IN VIVO OR IN VITRO FERTILIZATION” (priority 2011, published 2014)

How the values were obtained:
Format in all cases: cell-based
[1] = tested on: human spermatozoa; test: Intracellular calcium [Ca2+]i in fura-2 loaded human spermatozoa; settings: for increase in [Ca2+]i after addition of 1 mM calcium: calcium free media, calcium added after treatment
Description: (§1) Calcium measurements and the acrosome reaction were performed on motile spermatozoa isolated after percoll density gradient centrifugation (Supra sperm gradients, (ORIGO)) following the manufacturer's instructions. Briefly, spermatozoa were separated from seminal plasma by centrifugation on a discontinuous percoll gradient using a two-step gradient comprising 2 ml layers of 55% and 80% percoll respectively. Semen was placed on the top of the gradient and centrifuged at 300×g for 25 min. The spermatozoa at the base of the 80% fraction were collected and washed with a 5 ml volume of capacitating medium (CaCl2 1.5 mM, KCl 4.3 mM, NaHCO3 31 mM, HEPES 15 mM, Human Serum Albumin 5 mg/ml, Glucose 4.5 mM, Sodium Pyruvate 0.8 mM, Synthetic Serum Replacement, 0.5 ug/ml human recombinant insulin (Sperm preparation media (ORIGO)) and finally resuspended in capacitating media and used for the following assays of calcium measurements and acrosome reaction. All men were part of the above mentioned ongoing surveillance program of semen quality among young Danish men and included after approval from the local ethical committee (No. H-4-2010-016).
Semen samples were separated by percoll density gradient centrifugation to ensure viable and motile spermatozoa and resuspended in capacitating media for 1.5 hours. Afterwards, loaded with 3 μM of the fluorescent probe (intracellular calcium binding) fura-2/AM (Invitrogen, USA) for 30 min, centrifuged (10 min at 300 g) and washed with Krebs-Ringer buffer (120 mM NaCl, 15 mM NaHCO3, 5 mM KCl, 1 mM CaCl2, 5 mM Na2HPO4, 1 mM MgCl2 pH 7.3). […] Subsequently, 80 μl of the sperm sample was diluted in 920 μl Krebs-Ringer buffer and loaded on polylysine-coated chambers to minimize movement of the spermatozoa (Lab-Tek; Nalge Nunc International, USA). A Zeiss Axiovert 135 microscope equipped with a Zeiss Achrostigmat 40×1.3 NA objective was used to acquire images from the fluorescent probe. Excitation was obtained by a Polychrome Villuminator from Till Photonics (Germany) and images were acquired using a Cool Snap CCD camera (Photometrics, USA) from Robert Scientific (Malaysia). For measurements of [Ca2+]i, the excitation wavelengths were 338 and 380 nm, measuring emission above 510 nm using a cut-off filter. […] After background subtraction, ratio images were formed using MetaFluor software.
All experiments started by using low magnification to ensure visibility of several spermatozoa simultaneously. […] All measurements of [Ca^2+], were based upon evaluation of at least three spermatozoa simultaneously (see exact number in figure legends), and were repeated in at least three separate experiments. We used 10 different semen donors to ensure that all experiments were reproduced on semen samples from at least two different men.

[2] = tested on: human spermatozoa; test: Acrosome reaction (PSA-FITC staining)
Description: as §1
Acrosome status was assessed according to a modified version of the method described by Cross et al. 1986. Motile spermatozoa were isolated by percoll gradient centrifugation, washed twice with 5 ml 0.9% sodium chloride followed by centrifugation at 300×g for 10 min. […] The smear and cytospin were fixed in 96% ethanol for 5 min after air drying, washed in distilled water and stained for minimum 2 hours with Pisum sativum agglutinin labelled with fluorescein isothiocyanate (Sigma Aldrich) in Dulbecco phosphate buffered saline at 4° C. Finally, the slides were washed in distilled water and mounted with Vectrashield (H-1080 Vectar Laboratories) and 200 spermatozoa were counted on each slide using a fluorescence microscope at a magnification of 400×. The mean percentage of acrosome-reacted spermatozoa of the two slides was calculated. When more than half the head of a spermatozoon was brightly and uniformly fluorescent, the acrosome was considered to be intact. Spermatozoa without fluorescence or with a fluorescing band limited to the equatorial segment were considered to be acrosome-reacted. Spermatozoa with a fluorescing band limited to the equatorial segment were named eq-AR. The person assessing the slides was blinded to the treatment of the sample.

[3] = tested on: human spermatozoa; test: Sperm motility of washed spermatozoa with or without percoll gradient centrifugation
[4] = tested on: zona pellucida (ZP) of human oocytes; test: Human sperm-zona pellucida interaction (sperm-egg binding) test
Description: We used the Human sperm-zona pellucida interaction test that is designed to determine the capacity of sperm to interact with the zona pellucida (ZP) of human oocytes and serves thus as a test for evaluating fertility potential of human spermatozoa. The tests provide important diagnostic information about sperm fertilising ability and we used a modified version of the test developed by Liu and Baker (Liu and Baker hum reprod 1999 Defective sperm-zona pellucida interaction: a major cause of failure of fertilization in clinical in-vitro fertilization).
If the oocyte had sperm bound to the ZP from the IVF insemination, these were removed by aspiration using a fine glass pipette with an inner diameter (120 μm) slightly smaller than the oocyte diameter. […] Oocytes with >10 sperm penetrating the ZP were not used. Also degenerate, activated or morphologically abnormal oocytes were not used for the sperm-ZP interaction test. Oocytes were pooled from several patients and used for the test on the same day or kept in the incubator and used within the next 20 days. Between 15-30 oocytes was placed in 1 ml salt solution (storage 2-4 weeks). Salt-stored human oocytes were washed with gamete buffer (COOK) with four changes in 3 hours before they were used for the sperm-egg binding test.
Semen samples from five donors were used. […] The washed sperm pellet was resuspended with sEBSS to a sperm concentration of 2×10^6/ml for the ZP-interaction test. For the assessment of the sperm concentration the samples were diluted following the manufactures instruction and subsequently determined using SP-100 (Chemometec).
For the sperm-ZP interaction tests, either high quality sperm or total sperm sample (2×10^6) in 0.5 ml of medium (+/−1 nM Calcitriol) were incubated with three oocytes for 2 h at 37° C. in 5% CO2 in air. After incubation, the oocytes were transferred to sEBSS and washed by repeated aspiration with a glass pipette (inside diameter approximately 250 μm) to dislodge sperm loosely adhering to the surface of the ZP. Sperm binding to all oocytes was assessed.

[5] = tested on: human spermatozoa; test: Sperm motility (ABC) in semen samples exposed to 1,25(OH)2D3
Description: The participants produced a semen sample by masturbation. Self-reported information of duration of ejaculation abstinence was obtained. Trained technicians conducted semen analysis and a detailed description of assessment of semen samples has previously been published. Semen volume was estimated by weighing. For sperm motility assessment, duplicates of 10 μl of well-mixed semen were placed on a glass slide, examined on a heating stage kept at 37° C., under a microscope at ×400 magnification, and spermatozoa were classified as progressive motile (WHO class A+B), non-progressive motile (class C) or immotile (class D). The average of the two motility assessments was used. For the assessment of the sperm concentration the samples were diluted in a solution of 0.6 mol/l NaHCO3 and 0.4% (v/v) formaldehyde in distilled water, and subsequently assessed using Bürker-Türk haemocytometer. Only spermatozoa with tails were counted. Finally, smears were prepared, Papanicolaou stained and spermatozoa morphology assessed according to strict criteria (Menkveld et al., 1990).
Semen samples for the in vitro studies were obtained from 40 men from the general population, who were investigated between October 2009 and December 2010. Their semen samples were assessed as described above. […] Motility assessment was conducted in 17 samples (in duplicates) under non-capacitating conditions (in their seminal plasma), and 3 samples were also analyzed in capacitating conditions. 7 consecutively included men were used to investigate a dose-response relationship between VD and sperm motility.

[6] = calcium free media with 5 μM EGTA
[7] = 1 nM 1,25(OH)2D3 after pretreatment with nifedipine 10 μM

COc1ccc2c(c1)CC[C@@H]1[C@@H]2CC[C@]2(C)[C@@H](NCCCCCCN3C(=O)C=CC3=O)CC[C@@H]12 [U73122, 1-[6-[[17fi-3-methoxyestra-1,3,5(10)-trien-17-yl]amino]hexyl]-lH-pyrrole-2,5-dione]
increase of baseline [Ca2+]i ([1]; 10 μM U73122): more than 5 fold
proportion of spermatozoa with increased baseline [Ca2+]i ([1]; 10 μM U73122): > 80%
effect of PLC inhibition on the effect of progesterone ([1]; U73122, data not shown): unable to abrogate

CC(=O)[C@H]1CC[C@H]2[C@@H]3CCC4=CC(=O)CC[C@]4(C)[C@H]3CC[C@]12C [progesterone]
time until calcium level restored to baseline after initiation of treatment ([1]; 10 μM progesterone after nifedipine 10 μM pretreatment): 9 min
increase in [Ca2+]i [1, 6]: could not induce an increase
increase in [Ca2+]i after addition of 1 mM calcium [1]: comparable to the increase observed in the normal calcium containing Krebs Ringer solution

C=C1/C(=C\C=C2/CCC[C@]3(C)[C@@H]([C@H](C)/C=C/[C@@H](O)C4(C(=O)OCCCC)CC4)CC[C@@H]23)C[C@@H](O)C[C@@H]1O [ZK159222]
effect on calcium increase by 1,25(OH)2D3 ([1]; Example 4, pre-treatment with 100 nM ZK159222 (FIG. 5)): unable to influence
effect of antagonist on calcium response to 1,25(OH)2D3 ([1]; ZK159222 0.1-100 μM, data not shown): unable to abrogate or suppress

C=C1/C(=C\C=C2/CCC[C@]3(C)[C@@H]([C@H](C)CCCC(C)(C)O)CC[C@@H]23)C[C@@H](O)C[C@@H]1O [1,25(OH)2D3, 1,25-dihydroxycholecalciferol]
threshold for the all-or-nothing calcium response [1]: 10 to 50 µM
time until calcium levels restore back to baseline [1]: ≤ 2 min
max amplitude relative to max amplitude elicited by 10 μM progesterone ([1]; 1 nM 1,25(OH)2D3): 40-80%
maximum amplitude of calcium increase versus baseline calcium level ([1]; 1 nM 1,25(OH)2D3): 5-10 fold
amplitude of calcium response versus capacitating media ([1]; 1 nM 1,25(OH)2D3, non-capacitating media, data not shown): lower amplitude
length of repolarisation phase [1, 7]: 4 min
maximum amplitude of calcium increase versus baseline [1, 7]: 7 fold
increase in intracellular calcium ([Ca2+]i) from baseline calcium level ([1]; 1,25(OH)2D3 100 μM-10 μM (so in the source), motile spermatozoa): 5-10 fold
calcium response ([1]; 1,25(OH)2D3 added 9 min after initiation of thapsigargin 4 μM): unable to elicit a substantial calcium response
calcium response ([1]; 1,25(OH)2D3 in spermatozoa exposed to 2 μM U73122): unable to induce a rapid increase
time to max amplitude of the normal rapid calcium response ([1]; 1,25(OH)2D3 without inhibitor): within one minute
duration of plateau phase of [Ca2+]i ([1]; <10 nM 1,25(OH)2D3): up to 50 sec
change in Ca2+ concentration ([1]; Example 4, 1 nM (FIG. 4)): instant increase
start of calcium increase in the neck region ([1]; after addition of 1,25(OH)2D3): ≤ 5 s
increase in [Ca2+]i [1, 6]: could not induce an increase
calcium response ([1]; calcium free media without EGTA): marked response
increase in [Ca2+]i after addition of 1 mM calcium [1]: comparable to the increase observed in the normal calcium containing Krebs Ringer solution
duration of plateau phase of [Ca2+]i ([1]; higher 1,25(OH)2D3 concentrations): 50 to 300 s
duration of intracellular calcium increase before return to baseline ([1]; physiological concentrations): up to 90 seconds
effect of pre-treatment on the calcium effect of progesterone ([1]; pre-treatment with 1,25(OH)2D3, then 10 μM progesterone): could not be abrogated
median acrosome reacted spermatozoa, VD group ([2]; 10^-9 M, capacitating conditions (control group 12%)): 21%
median percentage of spermatozoa with an equatorial band (eq. AR) ([2]; 10^-9 M, capacitating conditions (from 4.7%), p=0.214): 5.3%
average increase in number of acrosome reacted spermatozoa ([2]; 10^-9 M, capacitating conditions, p=0.024): 6%
acrosome reacted spermatozoa, VD treated ([2]; non-capacitating conditions (NaCl), 6 men (control 3.7%), not significant): 4.2%
change in proportion of motile sperm ([3]; 1 nM calcitriol, 24 hours at room temperature, with and without percoll, not substantially different from vehicle): modest decrease
motile sperm ([3]; 1 nM, 60 minutes, isolated by percoll gradient centrifugation (from 62%)): 65%
sperm motility (mean) ([3]; 1 nM, 60 minutes, no percoll centrifugation (vehicle mean 50)): 48
time spermatozoa remain motile after treatment ([3]; Example 5 + FIG. 9): at least 24 hours
mean number of spermatozoa bound to each oocyte ([4]; 1 nM, 5 donors, all pretreatments (vehicle mean 52)): 74
mean difference in sperm bound versus vehicle ([4]; 1 nM, 5 donors, all pretreatments, p=0.022): 43%
average improvement of sperm-egg binding versus vehicle ([4]; 1 nM, isolated with percoll gradient centrifugation, p=0.027): 28%
difference in sperm-egg binding versus vehicle ([4]; 1 nM, not separated by percoll gradient centrifugation, p=0.139): 60%
increase in sperm-egg binding ([4]; patient 3 (low semen quality), following percoll gradient centrifugation): 33%
change in sperm-egg binding ([4]; patient 3 (low semen quality), not separated by Percoll centrifugation): modest decline
median decrease in sperm motility compared with control ([5]; 10^-5M): 15%
median increase in sperm motility ([5]; 10^-9M, p=0.006): 7%
increase in median sperm motility (ABC) ([5]; 10^-14M to 10^-9M, non-capacitating conditions): 2-7%
increase in mean sperm motility ([5]; 17 men, 10^-9M for 30 min at room temperature, p=0.010): 2.9%
sperm motility compared with control ([5]; concentrations above 10^-7M): decreased motility compared with control

C/C=C(/C)C(=O)O[C@H]1C(C)=C2[C@H]([C@@H]1OC(=O)CCCCCCC)[C@@](C)(OC(C)=O)C[C@H](OC(=O)CCC)[C@@]1(O)[C@H]2OC(=O)[C@@]1(C)O [thapsigargin]
stable plateau of calcium concentration versus baseline ([1]; thapsigargin 4 μM, nine minutes after exposure): 3 fold
effect on calcium response to 1,25(OH)2D3 ([1]; thapsigargin <1 μM): unable to abrogate

C[C@H](CCC(=O)O)C[C@H](C)C[C@H](C)C(=O)/C=C(\O)[C@H](C)C[C@H](C)C/C=C/[C@@H](C)[C@@H](O)[C@@H](C)[C@@H](O)C[C@@H]1CC[C@@](C)([C@H]2CC[C@@](C)([C@@H](C)O)O2)O1 [Ionomycin, ionomycin]
amplitude of calcium response from baseline ([1]; ionomycin 500 nM, calcium free media with EGTA): < 3 fold

C=C1CC[C@H](O)C/C1=C/C=C1\CCC[C@]2(C)[C@@H]([C@H](C)CCCC(C)(C)O)CC[C@@H]12 [25-OH D3, 25-OH Vitamin D3]
increase in [Ca2+]i ([1]; 25-OH D3 100 nM): unable to elicit an increase
increase of [Ca2+]i ([1]; Example 4, 25-OHD3 in the nanomolar range): unable to increase [Ca^2+], substantially
increase of [Ca2+]i ([1]; Example 4, higher concentrations of 25-OHD3 (1 μM, FIG. 7)): marked but delayed increase

C=C1/C(=C\C=C2/CCC[C@]3(C)[C@@H]([C@H](C)CCCC(C)(C)O)CC[C@@H]23)C[C@@H](O)C[C@H]1O [1β,25(OH)2D3, 1β,25-(OH)2D3]
effect on calcium effect of progesterone ([1]; Example 4): did not abrogate
effect on calcium response to 1,25(OH)2D3 ([1]; Example 4, non-genomic competitive antagonist): abrogated the response to 1,25(OH)2D3 completely
effect of pretreatment on calcium response to 1,25(OH)2D3 (VD response) ([1]; pretreatment with 1-40 μM 1β,25(OH)2D3): blocked completely
